In patent US8367681B2, “Pyrazolopyrimidines and related heterocycles as kinase inhibitors” (Cylene Pharmaceuticals, Inc., priority 2009, dated 2013):

Experiments:
[1] = biological target: recombinant PIM-1 (Homo sapiens, UniProt P11309); test: PIM-1 kinase assay, 33P-ATP filter plate; type: biochemical; conditions: recombinant PIM-1, 15 uM ATP; read-out: PIM1: IC50
Procedure: The following procedure was used to assay the PIM-1 kinase activity of compounds of the invention. Other methods for assaying PIM-1 and other PIM kinases, as well as methods to assay for activity against the various kinases in FIG. 1, are known in the art.
In a final reaction volume of 50 ul, recombinant PIM-1 (1 ng) was incubated with 12 mM MOPS pH 7.0, 0.4 mM EDTA, glycerol 1%, brij 35 0.002%, 2- mercaptoethanol 0.02%, BSA 0.2 mg/ml, 100 uM KKRNRTLTK SEQ ID NO.: 5, 10 mM MgAcetate, 15 uM ATP, [γ-^33P-ATP] (specific activity approx. […]), DMSO 4% and test inhibitor compound at the required concentration. The reaction was initiated by the addition of the Magnesium ATP mixture. After 40 min incubation at 23° C., the reactions were quenched by the addition of 100 ul 0.75% Phosphoric acid, and the labeled peptide collected by filtration through a phosphocellulose filter plate. The plate was washed 4 times with 0.075% phosphoric acid (100 ul per well) and then, after the addition of scintillation fluid (20 ul per well), the counts were measured by a scintillation counter.

[2] = biological target: T1, recombinant human CK2 (Homo sapiens, UniProt P68400); test: CK2 assay, cell-free, 33P-ATP filter plate; type: biochemical
T1 construct: purchased Upstate
Procedure: Modulatory activity of compounds described herein was assessed in vitro in cell-free CK2 assays by the following method.
Test compounds in aqueous solution were added at a volume of 10 microliters, to a reaction mixture comprising 10 microliters Assay Dilution Buffer (ADB; 20 mM MOPS, pH 7.2, 25 mM beta-glycerolphosphate, 5 mM EGTA, 1 mM sodium orthovanadate and 1 mM dithiothreitol), 10 microliters of substrate peptide (RRRDDDSDDD SEQ ID NO.: 4, dissolved in ADB at a concentration of 1 mM), 10 microliters of recombinant human CK2 (25 ng dissolved in ADB; Upstate). Reactions were initiated by the addition of 10 microliters of ATP Solution (90% 75 mM MgCl2, 75 micromolar ATP dissolved in ADB; 10% [γ-^33P]ATP (stock 1 mCi/100 μl; 3000 Ci/mmol (Perkin Elmer) and maintained for 10 minutes at 30 degrees C. The reactions were quenched with 100 microliters of 0.75% phosphoric acid, then transferred to and filtered through a phosphocellulose filter plate (Millipore). After washing each well 5 times with 0.75% phosphoric acid, the plate was dried under vacuum for 5 min and, following the addition of 15 ul of scintillation fluid to each well, the residual radioactivity was measured using a Wallac luminescence counter.

[3] = test system: PC-3 human prostatic cancer cells; test: Alamar Blue (AB) cell proliferation assay, PC3; type: cell-based; conditions: PC-3, 96 h, four days with compound
Procedure: (§1) A representative cell-proliferation assay protocol using Alamar Blue dye (stored at 4° C., use 20 ul per well) is described hereafter.
(§2) 96-well Plate Setup and Compound Treatment • a. Split and trypsinize cells. • b. Count cells using hemocytometer. • c. Plate 4,000-5,000 cells per well in 100 μl of medium and seed into a 96-well plate according to the following plate layout. Add cell culture medium only to wells B10 to B12. Wells B1 to B9 have cells but no compound added.
(§3) • d. Add 100 μl of 2× drug dilution to each well in a concentration shown in the plate layout above. At the same time, add 100 μl of media into the control wells (wells B10 to B12). Total volume is 200 μl/well. • e. Incubate four (4) days at 37° C., 5% CO2 in a humidified incubator. • f. Add 20 μl Alamar Blue reagent to each well. • g. Incubate for four (4) hours at 37° C., 5% CO2 in a humidified incubator. • h. Record fluorescence at an excitation wavelength of 544 nm and emission wavelength of 590 nm using a microplate reader.
(§4) In the assays, cells are cultured with a test compound for approximately four days, the dye is then added to the cells and fluorescence of […] dye is detected after approximately four hours. Different types of cells can be utilized in the assays (e.g., HCT-116 human colorectal carcinoma cells, PC-3 human prostatic cancer cells, MDA-MB231 human breast cancer cells, K-562 human chronic myelogenous leukemia (CML) cells, MiaPaca human pancreatic carcinoma cells, MV-4 human acute myeloid leukemia cells, and BxPC3 human pancreatic adenocarcinoma cells).

[4] = test system: MiaPaca human pancreatic carcinoma cells; test: Alamar Blue (AB) cell proliferation assay, MiaPaCa; type: cell-based; conditions: MIA PaCa-2, 96 h, four days with compound
Procedure: as §1, §2, §3, §4

[5] = test system: MV-4 human acute myeloid leukemia cells; test: Alamar Blue (AB) cell proliferation assay, MV-4-11; type: cell-based; conditions: MV4-11, 96 h, MV-4-11 cells, four days with compound
Procedure: as §1, §2, §3, §4

[6] = test system: K-562 human chronic myelogenous leukemia (CML) cells; test: Alamar Blue (AB) cell proliferation assay, K-562; type: cell-based; conditions: K562, 96 h, K-562 cells, four days with compound
Procedure: as §1, §2, §3, §4

[7] = test system: MDA-MB231 human breast cancer cells; test: Alamar Blue (AB) cell proliferation assay, MDAMB231; type: cell-based; conditions: MDA-MB-231, 96 h, four days with compound
Procedure: as §1, §2, §3, §4

[8] = test system: P21_BxPC3; test: P21_BxPC3 cellular assay; type: cell-based; conditions: Homo sapiens, BXPC-3; BxPC3 cells
[9] = test system: P21_MDAMB231; test: P21_MDAMB231 cellular assay; type: cell-based; conditions: Homo sapiens, MDA-MB-231; MDAMB231 cells
[10] = biological target: recombinant human PIM2 (Homo sapiens, UniProt Q9P1W9); test: PIM-2 kinase assay, 33P-ATP filter plate; type: biochemical; conditions: PIM2, 5 μM ATP; read-out: PIM2 IC50 (printed in the PIM1: IC50 (μM) column)
Procedure: Test compounds dissolved and diluted in DMSO (2 μl) were added to a reaction mixture comprising 10 μl of 5× Reaction Buffer (40 mM MOPS pH 7.0, 5 mM EDTA), 10 μl of recombinant human PIM2 solution (4 ng PIM-2 dissolved in dilution buffer (20 mM MOPS pH 7.0; EDTA 1 mM; 5% Glycerol; 0.01% Brij 35; […]; […] 2-mercaptoethanol; 1 mg/ml BSA)) and 8 ul of water. Reactions were initiated by the addition of 10 ul of ATP Solution ([…] (15 mM MgCl2; 75 uM ATP) 1% ([γ-33P]ATP: Stock 1 mCi/100 μl; 3000 Ci/mmol (Perkin Elmer)) and 10 ul of substrate peptide solution (RSRSSYPAGT SEQ ID NO.: 6, dissolved in water at a concentration of 1 mM), Reactions were maintained for 10 min at 30° C. The reactions were quenched with 100 ul of 0.75% Phosphoric acid, then transferred to and filtered through a Phosphocellulose filter plate (Millipore, MSPH-N6B-50). After washing each well 4 times with 0.75% Phosphoric acid, scintillation fluid (20 uL) was added to each well and the residual radioactivity was measured using a Wallac luminescence counter.

recombinant PIM-1, sequence (P11309 whole entry): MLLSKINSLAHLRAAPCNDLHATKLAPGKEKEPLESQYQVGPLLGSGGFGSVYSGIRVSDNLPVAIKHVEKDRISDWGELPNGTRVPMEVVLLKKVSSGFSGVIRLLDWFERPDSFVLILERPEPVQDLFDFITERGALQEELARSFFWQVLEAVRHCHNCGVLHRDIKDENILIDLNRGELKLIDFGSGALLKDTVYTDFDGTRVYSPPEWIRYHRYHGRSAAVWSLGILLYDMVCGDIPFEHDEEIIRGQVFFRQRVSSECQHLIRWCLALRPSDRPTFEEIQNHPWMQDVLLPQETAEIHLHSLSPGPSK
T1 sequence (P68400 whole entry): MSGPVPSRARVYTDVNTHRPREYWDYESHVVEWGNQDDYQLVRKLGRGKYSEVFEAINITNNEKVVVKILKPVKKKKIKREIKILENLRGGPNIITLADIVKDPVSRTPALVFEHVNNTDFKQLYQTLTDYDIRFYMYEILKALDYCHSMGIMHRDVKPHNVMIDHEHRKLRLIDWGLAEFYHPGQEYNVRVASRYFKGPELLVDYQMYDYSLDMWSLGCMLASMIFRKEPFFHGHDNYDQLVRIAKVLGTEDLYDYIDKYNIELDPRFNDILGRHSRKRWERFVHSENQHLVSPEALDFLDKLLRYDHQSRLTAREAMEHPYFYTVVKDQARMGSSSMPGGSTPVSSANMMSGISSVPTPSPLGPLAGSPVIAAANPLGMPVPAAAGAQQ
T1 sequence (P67870 whole entry partner): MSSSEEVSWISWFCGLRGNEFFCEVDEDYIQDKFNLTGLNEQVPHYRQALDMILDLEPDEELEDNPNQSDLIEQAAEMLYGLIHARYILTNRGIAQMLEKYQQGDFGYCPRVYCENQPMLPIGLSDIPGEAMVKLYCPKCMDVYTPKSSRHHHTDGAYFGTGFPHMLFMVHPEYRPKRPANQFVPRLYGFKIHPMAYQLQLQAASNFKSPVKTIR
recombinant human PIM2, sequence (Q9P1W9 whole entry): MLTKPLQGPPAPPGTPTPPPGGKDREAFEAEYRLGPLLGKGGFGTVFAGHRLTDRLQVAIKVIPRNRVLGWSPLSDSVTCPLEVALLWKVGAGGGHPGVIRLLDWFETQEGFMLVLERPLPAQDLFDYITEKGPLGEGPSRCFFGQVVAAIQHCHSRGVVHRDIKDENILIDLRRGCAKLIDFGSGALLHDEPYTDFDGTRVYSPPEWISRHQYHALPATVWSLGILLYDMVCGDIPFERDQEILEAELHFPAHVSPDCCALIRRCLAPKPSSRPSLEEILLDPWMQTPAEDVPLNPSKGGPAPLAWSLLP

SMILES	IC50 [1]	IC50 [2]	IC50 [3]	also measured
CN1CCN(c2cccc(Nc3ccn4ncc(/C=C5\NC(=O)NC5=O)c4n3)c2)CC1	518 nM	247 nM		
CN1CCCN(c2ccn3ncc(/C=C4\NC(=O)NC4=O)c3n2)CC1	3530 nM	1970 nM		
CC(C)(C)c1cccc(Nc2ccn3ncc(/C=C4/NC(=O)NC4=O)c3n2)c1	890 nM	210 nM		
O=C1NC(=O)/C(=C/c2cnn3ccc(Nc4ccc(Cl)cc4)nc23)S1		7 nM		
CN1C(=O)NC(=O)/C1=C/c1cnn2ccc(Nc3cccc(Cl)c3)nc12	239 nM	375 nM		
CN1CCCN(c2ccn3ncc(/C=C4\SC(=O)NC4=O)c3n2)CC1	126 nM	130 nM		
O=C1NC(=O)/C(=C/c2cnn3ccc(Nc4cccc(OCCN5CCOCC5)c4)nc23)N1	1250 nM	303 nM		
O=C1NC(=S)S/C1=C\c1cnn2ccc(-c3ccccc3F)nc12	25 nM	15 nM	> 10000 nM	
O=C1NC(=O)/C(=C/c2cnn3ccc(-c4ccccc4F)nc23)S1	240 nM	41 nM	> 10000 nM	
O=C1NC(=O)/C(=C\c2cnn3ccc(Nc4cccc(Cn5ccnc5)c4)nc23)N1	61 nM	120 nM		
Cc1nccn1-c1cccc(Nc2ccn3ncc(/C=C4\SC(=O)NC4=O)c3n2)c1	4 nM	22 nM		IC50 [4]: > 10000 nM; IC50 [5]: 5380 nM; IC50 [6]: > 10000 nM; IC50 [7]: > 10000 nM
O=C1NC(=O)/C(=C/c2cnn3ccc(N4CCCCC4)nc23)N1	431 nM	145 nM		
O=C1NC(=O)/C(=C\c2cnn3ccc(-c4cccc(C(=O)O)c4)nc23)S1	688 nM	9 nM	> 30000 nM	IC50 [4]: > 10000 nM; IC50 [5]: > 1000 nM; IC50 [6]: > 10000 nM; IC50 [7]: > 10000 nM
O=C1NC(=O)/C(=C\c2cnn3ccc(Nc4cccc(Cl)c4)nc23)S1	52 nM	3 nM	3040 nM	IC50 [4]: 285 nM; IC50 [5]: 271 nM; IC50 [6]: 132 nM; IC50 [7]: 110 nM; IC50 [8]: 450 nM; IC50 [9]: 680 nM
CC(C)Nc1ccn2ncc(/C=C3\NC(=O)NC3=O)c2n1	1570 nM	574 nM		
COC(=O)c1cccc(-c2ccn3ncc(/C=C4/SC(=O)NC4=O)c3n2)c1	91 nM	80 nM	> 30000 nM	IC50 [4]: > 10000 nM; IC50 [6]: 51 nM; IC50 [7]: > 10000 nM; IC50 [8]: 5680 nM; IC50 [9]: 3160 nM
CC(C)(C)c1cccc(Nc2ccn3ncc(/C=C4/SC(=O)NC4=O)c3n2)c1	107 nM	79 nM		
O=C1NC(=S)S/C1=C/c1cnn2ccc(Nc3cccc(Cl)c3)nc12	18 nM	6 nM	842 nM	IC50 [4]: > 10000 nM; IC50 [5]: > 30 nM; IC50 [6]: 153 nM; IC50 [7]: > 10000 nM; IC50 [8]: 2660 nM; IC50 [9]: 300 nM
COC(=O)c1cccc(-c2ccn3ncc(/C=C4/SC(=S)NC4=O)c3n2)c1	21 nM	13 nM	3910 nM	IC50 [4]: > 10000 nM; IC50 [5]: 11 nM; IC50 [6]: > 10000 nM; IC50 [7]: 8660 nM
CN1CCN(c2ccc(Nc3ccn4ncc(/C=C5/NC(=O)NC5=O)c4n3)cc2)CC1	537 nM	57 nM		

More lines, main results first:

IC50 [1]	IC50 [2]	IC50 [3]	SMILES	also measured
158 nM	> 5000 nM		Nc1ccn2ncc(/C=C3\NC(=O)NC3=O)c2n1	
346 nM	35 nM	6550 nM	CC(C)CNc1ccn2ncc(/C=C3\NC(=O)NC3=O)c2n1	
1040 nM	23 nM	9710 nM	CC(C)Oc1cccc(Nc2ccn3ncc(/C=C4\NC(=O)NC4=O)c3n2)c1	
427 nM	9 nM	143 nM	O=C1NC(=O)/C(=C\c2cnn3ccc(Nc4cccc(Cl)c4)nc23)N1	IC50 [4]: 108 nM; IC50 [5]: > 30 nM; IC50 [6]: 153 nM; IC50 [7]: 768 nM; IC50 [8]: 540 nM; IC50 [9]: 100 nM
3010 nM	179 nM		O=C1NC(=O)/C(=C/c2cnn3ccc(-c4ccccc4F)nc23)N1	
	< 100 nM		CCOCCNC(=O)c1ccc(-c2ccn3ncc(/C=C4\NC(=O)NC4=O)c3n2)s1	IC50 [10]: 1.06 µM
431 nM	58 nM		CN(C)CCOc1ccc(Nc2ccn3ncc(/C=C4\NC(=O)NC4=O)c3n2)cc1	
373 nM	460 nM		CCN(CC)Cc1cccc(Nc2ccn3ncc(/C=C4\NC(=O)NC4=O)c3n2)c1	
	< 100 nM		CC(O)CNC(=O)c1ccc(-c2ccn3ncc(/C=C4\NC(=O)NC4=O)c3n2)s1 (stereo not drawn)	IC50 [10]: 0.54 µM
	< 100 nM		O=C1NC(=O)/C(=C/c2cnn3ccc(-c4ccc(C(=O)NCC5CC5)s4)nc23)N1	IC50 [10]: 0.58 µM
2380 nM	2150 nM		O=C1NC(=O)/C(=C/c2cnn3ccc(NCCF)nc23)N1	
194 nM	20 nM		O=C1NC(=O)/C(=C/c2cnn3ccc(Nc4ccc(Cl)cc4)nc23)N1	
